Data from PubChem BioAssay (NCI).
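Each compound was tested at five concentrations against cells in 96-well plates for 48 hours. The concentration for full growth arrest is given as TGI.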

How the values were obtained:
Assay in all cases: inhibition of tumour cell growth, NCI panel, 48 h
HCT-15 colon = system: HCT-15 colon
NCI-H522 lung = system: NCI-H522 lung
T-47D breast = system: T-47D breast
MDA-N = system: MDA-N
KM12 colon = system: KM12 colon
A549 NSCLC = system: A549 NSCLC
SK-MEL-28 melanoma = system: SK-MEL-28 melanoma
SK-OV-3 ovarian = system: SK-OV-3 ovarian
SK-MEL-5 melanoma = system: SK-MEL-5 melanoma
MDA-MB-231 breast = system: MDA-MB-231 breast
OVCAR-3 ovarian = system: OVCAR-3 ovarian
LOX IMVI melanoma = system: LOX IMVI melanoma
MALME-3M melanoma = system: MALME-3M melanoma
EKVX NSCLC = system: EKVX NSCLC
BT-549 breast = system: BT-549 breast
HCT-116 colon = system: HCT-116 colon
M14 melanoma = system: M14 melanoma
SF-295 CNS = system: SF-295 CNS
RPMI-8226 leukemia = system: RPMI-8226 leukemia
UO-31 renal = system: UO-31 renal
HOP-62 NSCLC = system: HOP-62 NSCLC
IGROV1 ovarian = system: IGROV1 ovarian
NCI-H23 lung = system: NCI-H23 lung
OVCAR-4 ovarian = system: OVCAR-4 ovarian
NCI-H226 lung = system: NCI-H226 lung
A498 renal = system: A498 renal
NCI/ADR-RES ovarian = system: NCI/ADR-RES ovarian
SK-MEL-2 melanoma = system: SK-MEL-2 melanoma
MCF7 breast = system: MCF7 breast
SW-620 colon = system: SW-620 colon
SNB-75 CNS = system: SNB-75 CNS
CAKI-1 renal = system: CAKI-1 renal
K-562 leukemia = system: K-562 leukemia
MOLT-4 leukemia = system: MOLT-4 leukemia
UACC-257 melanoma = system: UACC-257 melanoma
SR leukemia = system: SR leukemia
CCRF-CEM leukemia = system: CCRF-CEM leukemia
NCI-H460 lung = system: NCI-H460 lung
COLO 205 colon = system: COLO 205 colon
ACHN renal = system: ACHN renal
PC-3 prostate = system: PC-3 prostate
HOP-92 NSCLC = system: HOP-92 NSCLC
SN12C renal = system: SN12C renal
SF-268 CNS = system: SF-268 CNS
RXF 393 renal = system: RXF 393 renal
OVCAR-8 ovarian = system: OVCAR-8 ovarian
MDA-MB-435 = system: MDA-MB-435
TK-10 renal = system: TK-10 renal
HT29 colon = system: HT29 colon
HCC-2998 colon = system: HCC-2998 colon
786-0 renal = system: 786-0 renal
OVCAR-5 ovarian = system: OVCAR-5 ovarian
SNB-19 CNS = system: SNB-19 CNS
DU-145 prostate = system: DU-145 prostate
U251 CNS = system: U251 CNS
HS 578T breast = system: HS 578T breast
HL-60(TB) leukemia = system: HL-60(TB) leukemia
SF-539 CNS = system: SF-539 CNS
UACC-62 melanoma = system: UACC-62 melanoma

CC(C)(C)OC(=O)NCCCCCCC(=O)Cc1ccccc1
TGI (HCT-15 colon): > 100 µM
TGI (NCI-H522 lung): > 100 µM
TGI (T-47D breast): > 100 µM
TGI (MDA-N): > 100 µM
TGI (KM12 colon): > 100 µM
TGI (A549 NSCLC): > 100 µM
TGI (SK-MEL-28 melanoma): > 100 µM
TGI (SK-OV-3 ovarian): > 100 µM
TGI (SK-MEL-5 melanoma): > 100 µM
TGI (MDA-MB-231 breast): > 100 µM
TGI (OVCAR-3 ovarian): > 100 µM
TGI (LOX IMVI melanoma): > 100 µM
TGI (MALME-3M melanoma): > 100 µM
TGI (EKVX NSCLC): > 100 µM
TGI (BT-549 breast): > 100 µM
TGI (HCT-116 colon): > 100 µM
TGI (M14 melanoma): > 100 µM
TGI (SF-295 CNS): > 100 µM
TGI (RPMI-8226 leukemia): > 100 µM
TGI (UO-31 renal): > 100 µM
TGI (HOP-62 NSCLC): > 100 µM
TGI (IGROV1 ovarian): > 100 µM
TGI (NCI-H23 lung): > 100 µM
TGI (OVCAR-4 ovarian): > 100 µM
TGI (NCI-H226 lung): > 100 µM
TGI (A498 renal): > 100 µM
TGI (NCI/ADR-RES ovarian): > 100 µM
TGI (SK-MEL-2 melanoma): > 100 µM
TGI (MCF7 breast): > 100 µM
TGI (SW-620 colon): > 100 µM
TGI (SNB-75 CNS): > 100 µM
TGI (CAKI-1 renal): > 100 µM
TGI (K-562 leukemia): > 100 µM
TGI (MOLT-4 leukemia): > 100 µM
TGI (UACC-257 melanoma): > 100 µM
TGI (SR leukemia): > 100 µM
TGI (CCRF-CEM leukemia): > 100 µM
TGI (NCI-H460 lung): > 100 µM
TGI (COLO 205 colon): > 100 µM
TGI (ACHN renal): > 100 µM
TGI (PC-3 prostate): > 100 µM
TGI (HOP-92 NSCLC): > 100 µM
TGI (SN12C renal): > 100 µM
TGI (SF-268 CNS): > 100 µM
TGI (RXF 393 renal): > 100 µM
TGI (OVCAR-8 ovarian): > 100 µM
TGI (MDA-MB-435): > 100 µM
TGI (TK-10 renal): > 100 µM
TGI (HT29 colon): > 100 µM
TGI (HCC-2998 colon): > 100 µM
TGI (786-0 renal): > 100 µM
TGI (OVCAR-5 ovarian): > 100 µM
TGI (SNB-19 CNS): > 100 µM
TGI (DU-145 prostate): > 100 µM
TGI (U251 CNS): > 100 µM

CN(C)CCCNC(=O)N/N=C\c1cccc2ccccc12
TGI (HCT-15 colon): > 10 µM
TGI (NCI-H522 lung): > 10 µM
TGI (T-47D breast): > 10 µM
TGI (MDA-N): > 10 µM
TGI (KM12 colon): > 10 µM
TGI (A549 NSCLC): > 10 µM
TGI (SK-MEL-28 melanoma): > 10 µM
TGI (SK-OV-3 ovarian): > 10 µM
TGI (HS 578T breast): > 10 µM
TGI (SK-MEL-5 melanoma): > 10 µM
TGI (MDA-MB-231 breast): > 10 µM
TGI (LOX IMVI melanoma): > 10 µM
TGI (MALME-3M melanoma): > 10 µM
TGI (EKVX NSCLC): > 10 µM
TGI (HCT-116 colon): > 10 µM
TGI (M14 melanoma): > 10 µM
TGI (SF-295 CNS): > 10 µM
TGI (RPMI-8226 leukemia): > 10 µM
TGI (UO-31 renal): > 10 µM
TGI (HOP-62 NSCLC): > 10 µM
TGI (IGROV1 ovarian): > 10 µM
TGI (OVCAR-4 ovarian): > 10 µM
TGI (HL-60(TB) leukemia): > 10 µM
TGI (SF-539 CNS): > 10 µM
TGI (A498 renal): > 10 µM
TGI (NCI/ADR-RES ovarian): > 10 µM
TGI (MCF7 breast): > 10 µM
TGI (SW-620 colon): > 10 µM
TGI (SNB-75 CNS): > 10 µM
TGI (K-562 leukemia): > 10 µM
TGI (MOLT-4 leukemia): > 10 µM
TGI (SR leukemia): > 10 µM
TGI (CCRF-CEM leukemia): > 10 µM
TGI (NCI-H460 lung): > 10 µM
TGI (COLO 205 colon): > 10 µM
TGI (ACHN renal): > 10 µM
TGI (PC-3 prostate): > 10 µM
TGI (HOP-92 NSCLC): > 10 µM
TGI (SN12C renal): > 10 µM
TGI (UACC-62 melanoma): > 10 µM
TGI (SF-268 CNS): > 10 µM
TGI (RXF 393 renal): > 10 µM
TGI (OVCAR-8 ovarian): > 10 µM
TGI (TK-10 renal): > 10 µM
TGI (HT29 colon): > 10 µM
TGI (HCC-2998 colon): > 10 µM
TGI (OVCAR-5 ovarian): > 10 µM
TGI (DU-145 prostate): > 10 µM

Clc1ccc(C2ON=C(c3ccccc3)N2C23CC4CC(CC(C4)C2)C3)c(Cl)c1 (centres undefined)
TGI (HCT-15 colon): > 10 µM
TGI (NCI-H522 lung): > 10 µM
TGI (T-47D breast): > 10 µM
TGI (MDA-N): > 10 µM
TGI (KM12 colon): > 10 µM
TGI (A549 NSCLC): > 10 µM
TGI (SK-MEL-28 melanoma): > 10 µM
TGI (SK-OV-3 ovarian): > 10 µM
TGI (HS 578T breast): > 10 µM
TGI (SK-MEL-5 melanoma): > 10 µM
TGI (MDA-MB-231 breast): > 10 µM
TGI (OVCAR-3 ovarian): > 10 µM
TGI (LOX IMVI melanoma): > 10 µM
TGI (MALME-3M melanoma): > 10 µM
TGI (EKVX NSCLC): > 10 µM
TGI (HCT-116 colon): > 10 µM
TGI (M14 melanoma): > 10 µM
TGI (SF-295 CNS): > 10 µM
TGI (RPMI-8226 leukemia): > 10 µM
TGI (UO-31 renal): > 10 µM
TGI (HOP-62 NSCLC): > 10 µM
TGI (IGROV1 ovarian): > 10 µM
TGI (NCI-H23 lung): > 10 µM
TGI (OVCAR-4 ovarian): > 10 µM
TGI (NCI-H226 lung): > 10 µM
TGI (SF-539 CNS): > 10 µM
TGI (A498 renal): > 10 µM
TGI (NCI/ADR-RES ovarian): > 10 µM
TGI (SK-MEL-2 melanoma): > 10 µM
TGI (MCF7 breast): > 10 µM
TGI (SW-620 colon): > 10 µM
TGI (SNB-75 CNS): > 10 µM
TGI (CAKI-1 renal): > 10 µM
TGI (K-562 leukemia): > 10 µM
TGI (MOLT-4 leukemia): > 10 µM
TGI (UACC-257 melanoma): > 10 µM
TGI (CCRF-CEM leukemia): > 10 µM
TGI (NCI-H460 lung): > 10 µM
TGI (COLO 205 colon): > 10 µM
TGI (ACHN renal): > 10 µM
TGI (PC-3 prostate): > 10 µM
TGI (HOP-92 NSCLC): > 10 µM
TGI (SN12C renal): > 10 µM
TGI (UACC-62 melanoma): > 10 µM
TGI (SF-268 CNS): > 10 µM
TGI (RXF 393 renal): > 10 µM
TGI (OVCAR-8 ovarian): > 10 µM
TGI (MDA-MB-435): > 10 µM
TGI (TK-10 renal): > 10 µM
TGI (HT29 colon): > 10 µM
TGI (HCC-2998 colon): > 10 µM
TGI (786-0 renal): > 10 µM
TGI (OVCAR-5 ovarian): > 10 µM
TGI (SNB-19 CNS): > 10 µM
TGI (DU-145 prostate): > 10 µM
TGI (U251 CNS): > 10 µM
